Reference: ChEMBL document CHEMBL4819051, “Synthesis and antifungal activity of new hybrids thiazolo[4,5-d]pyrimidines with (1H-1,2,4)triazole” (Bioorg Med Chem Lett, 2021)
In brackets after ≈: the same amount, converted by molar mass.

Assays:
[1] = 1-octanol/aqueous buffer distribution coefficient, logP of the compound at pH 7.4; assay type: physicochemical
Aspergillus niger [2] = test: Antifungal activity against Aspergillus niger 37a assessed as reduction in fungal growth incubated for 48 hrs by CLSI based serial microbroth dilution method; assay type: functional
Cyberlindnera jadinii [3] = test: Antifungal activity against Candida utilis 84 assessed as reduction in fungal growth incubated for 24 hrs by CLSI based serial microbroth dilution method; assay type: functional; conditions: Williopsis jadinii
Microsporum canis [4] = test: Antifungal activity against Microsporum canis B-200 assessed as reduction in fungal growth incubated for 48 hrs by CLSI based serial microbroth dilution method; assay type: functional
Nakaseomyces glabratus [5] = test: Antifungal activity against Candida glabrata 61L assessed as reduction in fungal growth incubated for 48 hrs by CLSI based serial microbroth dilution method; assay type: functional
Candida parapsilosis [6] = test: Antifungal activity against Candida parapsilosis ATCC 22019 assessed as reduction in fungal growth incubated for 48 hrs by CLSI based serial microbroth dilution method; assay type: functional; conditions: Lodderomyces parapsilosis
Candida tropicalis [7] = test: Antifungal activity against Candida tropicalis 3019 assessed as reduction in fungal growth incubated for 24 hrs by CLSI based serial microbroth dilution method; assay type: functional
Candida albicans [8] = test: Antifungal activity against Candida albicans 604M assessed as reduction in fungal growth incubated for 24 hrs by CLSI based serial microbroth dilution method; assay type: functional
Pichia kudriavzevii [9] = test: Antifungal activity against Candida krusei 432M assessed as reduction in fungal growth incubated for 24 hrs by CLSI based serial microbroth dilution method; assay type: functional
Trichophyton rubrum [10] = test: Antifungal activity against Trichophyton rubrum 2002 assessed as reduction in fungal growth incubated for 24 hrs by CLSI based serial microbroth dilution method; assay type: functional
Candida albicans [11] = test: Antifungal activity against Candida albicans ATCC 24433 assessed as reduction in fungal growth incubated for 48 hrs by CLSI based serial microbroth dilution method; assay type: functional
Cryptococcus neoformans [12] = test: Antifungal activity against Cryptococcus neoformans assessed as reduction in fungal growth incubated for 48 hrs by CLSI based serial microbroth dilution method; assay type: functional
Cyberlindnera jadinii [13] = test: Antifungal activity against Candida utilis 84 assessed as reduction in fungal growth incubated for 48 hrs by CLSI based serial microbroth dilution method; assay type: functional; conditions: Williopsis jadinii
Candida albicans [14] = test: Antifungal activity against Candida albicans ATCC 24433 assessed as reduction in fungal growth incubated for 24 hrs by CLSI based serial microbroth dilution method; assay type: functional
Trichophyton rubrum [15] = test: Antifungal activity against Trichophyton rubrum 2002 assessed as reduction in fungal growth incubated for 48 hrs by CLSI based serial microbroth dilution method; assay type: functional
Microsporum canis [16] = test: Antifungal activity against Microsporum canis B-200 assessed as reduction in fungal growth incubated for 24 hrs by CLSI based serial microbroth dilution method; assay type: functional
Candida parapsilosis [17] = test: Antifungal activity against Candida parapsilosis ATCC 22019 assessed as reduction in fungal growth incubated for 24 hrs by CLSI based serial microbroth dilution method; assay type: functional; conditions: Lodderomyces parapsilosis
Candida tropicalis [18] = test: Antifungal activity against Candida tropicalis 3019 assessed as reduction in fungal growth incubated for 48 hrs by CLSI based serial microbroth dilution method; assay type: functional
Cryptococcus neoformans [19] = test: Antifungal activity against Cryptococcus neoformans assessed as reduction in fungal growth incubated for 24 hrs by CLSI based serial microbroth dilution method; assay type: functional
Candida albicans [20] = test: Antifungal activity against Candida albicans CBS 8837 assessed as reduction in fungal growth incubated for 48 hrs by CLSI based serial microbroth dilution method; assay type: functional
Candida albicans [21] = test: Antifungal activity against Candida albicans 604M assessed as reduction in fungal growth incubated for 48 hrs by CLSI based serial microbroth dilution method; assay type: functional
Pichia kudriavzevii [22] = test: Antifungal activity against Candida krusei 432M assessed as reduction in fungal growth incubated for 48 hrs by CLSI based serial microbroth dilution method; assay type: functional
Candida albicans [23] = test: Antifungal activity against Candida albicans 8R assessed as reduction in fungal growth incubated for 48 hrs by CLSI based serial microbroth dilution method; assay type: functional
Candida albicans [24] = test: Antifungal activity against Candida albicans CBS 8837 assessed as reduction in fungal growth incubated for 24 hrs by CLSI based serial microbroth dilution method; assay type: functional
Aspergillus niger [25] = test: Antifungal activity against Aspergillus niger 37a assessed as reduction in fungal growth incubated for 24 hrs by CLSI based serial microbroth dilution method; assay type: functional
Nakaseomyces glabratus [26] = test: Antifungal activity against Candida glabrata 61L assessed as reduction in fungal growth incubated for 24 hrs by CLSI based serial microbroth dilution method; assay type: functional
Candida albicans [27] = test: Antifungal activity against Candida albicans 8R assessed as reduction in fungal growth incubated for 24 hrs by CLSI based serial microbroth dilution method; assay type: functional

Q: For `O=c1c2sc(=S)n(-c3ccc(F)cc3)c2ncn1CC(O)(Cn1cncn1)c1ccc(F)cc1F` (configuration not stated), which logD [1] is on record?
A: 0.47

Q: Which MIC (Aspergillus niger [2]) does the source give for `O=c1c2sc(=S)n(-c3ccc(Cl)cc3)c2ncn1CCCN1CCN(CC(O)(Cn2cncn2)c2ccc(F)cc2F)CC1` (configuration not stated) here?
A: 32 µg/mL (≈ 48.5 µM)

Q: And the MIC (Cyberlindnera jadinii [3])?
A: 2 µg/mL (≈ 3.03 µM)

Q: And the MIC (Microsporum canis [4])?
A: 32 µg/mL (≈ 48.5 µM)

Q: What about the MIC (Nakaseomyces glabratus [5]) of the same molecule?
A: 32 µg/mL (≈ 48.5 µM)

Q: What about the MIC (Candida parapsilosis [6]) of the same molecule?
A: 0.25 µg/mL (≈ 0.379 µM)

Q: And the MIC (Candida tropicalis [7])?
A: 8 µg/mL (≈ 12.1 µM)

Q: What about the MIC (Candida albicans [8]) of the same molecule?
A: 32 µg/mL (≈ 48.5 µM)

Q: And the MIC (Pichia kudriavzevii [9])?
A: 16 µg/mL (≈ 24.3 µM)

Q: What about the MIC (Trichophyton rubrum [10]) of the same molecule?
A: 16 µg/mL (≈ 24.3 µM)

Q: And the MIC (Candida albicans [11])?
A: 32 µg/mL (≈ 48.5 µM)

Q: What about the MIC (Cryptococcus neoformans [12]) of the same molecule?
A: 32 µg/mL (≈ 48.5 µM)

Q: What about the MIC (Cyberlindnera jadinii [13]) of the same molecule?
A: 2 µg/mL (≈ 3.03 µM)

Q: What about the MIC (Candida albicans [14]) of the same molecule?
A: 16 µg/mL (≈ 24.3 µM)

Q: What about the MIC (Trichophyton rubrum [15]) of the same molecule?
A: 16 µg/mL (≈ 24.3 µM)

Q: What about the MIC (Microsporum canis [16]) of the same molecule?
A: 32 µg/mL (≈ 48.5 µM)

Q: What about the MIC (Candida parapsilosis [17]) of the same molecule?
A: 0.25 µg/mL (≈ 0.379 µM)

Q: And the MIC (Candida tropicalis [18])?
A: 8 µg/mL (≈ 12.1 µM)

Q: And the MIC (Cryptococcus neoformans [19])?
A: 32 µg/mL (≈ 48.5 µM)

Q: What about the MIC (Candida albicans [20]) of the same molecule?
A: 32 µg/mL (≈ 48.5 µM)

Q: And the MIC (Candida albicans [21])?
A: 32 µg/mL (≈ 48.5 µM)

Q: And the MIC (Pichia kudriavzevii [22])?
A: 32 µg/mL (≈ 48.5 µM)

Q: And the MIC (Candida albicans [23])?
A: 32 µg/mL (≈ 48.5 µM)

Q: And the MIC (Candida albicans [24])?
A: 16 µg/mL (≈ 24.3 µM)

Q: What about the MIC (Aspergillus niger [25]) of the same molecule?
A: 32 µg/mL (≈ 48.5 µM)

Q: And the MIC (Nakaseomyces glabratus [26])?
A: 2 µg/mL (≈ 3.03 µM)

Q: What about the MIC (Candida albicans [27]) of the same molecule?
A: 32 µg/mL (≈ 48.5 µM)

Q: Which logD [1] does the source give for `Cc1ccc(-n2c(=S)sc3c(=O)n(CC(=O)NCC(O)(Cn4cncn4)c4ccc(F)cc4F)cnc32)cc1` (configuration not stated) here?
A: 1.27

Q: For `OC(Cn1cncn1)(Cn1cncn1)c1ccc(F)cc1F` [FLUCONAZOLE], which MIC (Aspergillus niger [2]) is on record?
A: 64 µg/mL (≈ 209 µM)

Q: What about the MIC (Cyberlindnera jadinii [3]) of the same molecule?
A: 2 µg/mL (≈ 6.53 µM)

Q: What about the MIC (Microsporum canis [4]) of the same molecule?
A: 32 µg/mL (≈ 104 µM)

Q: What about the MIC (Nakaseomyces glabratus [5]) of the same molecule?
A: 32 µg/mL (≈ 104 µM)

Q: And the MIC (Candida parapsilosis [6])?
A: 4 µg/mL (≈ 13.1 µM)

Q: And the MIC (Candida tropicalis [7])?
A: 1 µg/mL (≈ 3.27 µM)

Q: What about the MIC (Candida albicans [8]) of the same molecule?
A: 64 µg/mL (≈ 209 µM)

Q: What about the MIC (Pichia kudriavzevii [9]) of the same molecule?
A: 32 µg/mL (≈ 104 µM)

Q: And the MIC (Trichophyton rubrum [10])?
A: 64 µg/mL (≈ 209 µM)

Q: And the MIC (Candida albicans [11])?
A: 4 µg/mL (≈ 13.1 µM)

Q: And the MIC (Cryptococcus neoformans [12])?
A: 16 µg/mL (≈ 52.2 µM)

Q: And the MIC (Cyberlindnera jadinii [13])?
A: 2 µg/mL (≈ 6.53 µM)

Q: What about the MIC (Candida albicans [14]) of the same molecule?
A: 4 µg/mL (≈ 13.1 µM)

Q: And the MIC (Trichophyton rubrum [15])?
A: 128 µg/mL (≈ 418 µM)

Q: And the MIC (Microsporum canis [16])?
A: 32 µg/mL (≈ 104 µM)

Q: What about the MIC (Candida parapsilosis [17]) of the same molecule?
A: 2 µg/mL (≈ 6.53 µM)

Q: And the MIC (Candida tropicalis [18])?
A: 2 µg/mL (≈ 6.53 µM)

Q: And the MIC (Cryptococcus neoformans [19])?
A: 16 µg/mL (≈ 52.2 µM)

Q: And the MIC (Candida albicans [20])?
A: 128 µg/mL (≈ 418 µM)

Q: And the MIC (Candida albicans [21])?
A: 64 µg/mL (≈ 209 µM)

Q: What about the MIC (Pichia kudriavzevii [22]) of the same molecule?
A: 64 µg/mL (≈ 209 µM)

Q: What about the MIC (Candida albicans [23]) of the same molecule?
A: 128 µg/mL (≈ 418 µM)

Q: What about the MIC (Candida albicans [24]) of the same molecule?
A: 128 µg/mL (≈ 418 µM)

Q: And the MIC (Aspergillus niger [25])?
A: 64 µg/mL (≈ 209 µM)

Q: And the MIC (Nakaseomyces glabratus [26])?
A: 8 µg/mL (≈ 26.1 µM)

Q: And the MIC (Candida albicans [27])?
A: 128 µg/mL (≈ 418 µM)

Q: Which logD [1] does the source give for `O=C(Cn1cnc2c(sc(=S)n2-c2ccc(F)cc2)c1=O)NCC(O)(Cn1cncn1)c1ccc(F)cc1F` (configuration not stated) here?
A: 0.79

Q: With `COc1ccccc1-n1c(=S)sc2c(=O)n(CC(O)(Cn3cncn3)c3ccc(F)cc3F)cnc21` (configuration not stated) as the molecule, how does the logD [1] read?
A: 1.19

Q: With `O=c1c2sc(=S)n(-c3ccc(F)cc3)c2ncn1CCN1CCN(CC(O)(Cn2cncn2)c2ccc(F)cc2F)CC1` (configuration not stated) as the molecule, how does the MIC (Aspergillus niger [2]) read?
A: 32 µg/mL (≈ 50.9 µM)

Q: And the MIC (Cyberlindnera jadinii [3])?
A: 32 µg/mL (≈ 50.9 µM)

Q: What about the MIC (Microsporum canis [4]) of the same molecule?
A: 32 µg/mL (≈ 50.9 µM)

Q: What about the MIC (Nakaseomyces glabratus [5]) of the same molecule?
A: 32 µg/mL (≈ 50.9 µM)

Q: And the MIC (Candida parapsilosis [6])?
A: 1 µg/mL (≈ 1.59 µM)

Q: What about the MIC (Candida tropicalis [7]) of the same molecule?
A: 32 µg/mL (≈ 50.9 µM)

Q: What about the MIC (Candida albicans [8]) of the same molecule?
A: 32 µg/mL (≈ 50.9 µM)

Q: What about the MIC (Pichia kudriavzevii [9]) of the same molecule?
A: 32 µg/mL (≈ 50.9 µM)

Q: What about the MIC (Trichophyton rubrum [10]) of the same molecule?
A: 32 µg/mL (≈ 50.9 µM)

Q: And the MIC (Candida albicans [11])?
A: 8 µg/mL (≈ 12.7 µM)

Q: And the MIC (Cryptococcus neoformans [12])?
A: 32 µg/mL (≈ 50.9 µM)

Q: What about the MIC (Cyberlindnera jadinii [13]) of the same molecule?
A: 32 µg/mL (≈ 50.9 µM)

Q: What about the MIC (Candida albicans [14]) of the same molecule?
A: 8 µg/mL (≈ 12.7 µM)

Q: And the MIC (Trichophyton rubrum [15])?
A: 32 µg/mL (≈ 50.9 µM)

Q: What about the MIC (Microsporum canis [16]) of the same molecule?
A: 32 µg/mL (≈ 50.9 µM)

Q: And the MIC (Candida parapsilosis [17])?
A: 0.5 µg/mL (≈ 0.795 µM)

Q: What about the MIC (Candida tropicalis [18]) of the same molecule?
A: 32 µg/mL (≈ 50.9 µM)

Q: And the MIC (Cryptococcus neoformans [19])?
A: 32 µg/mL (≈ 50.9 µM)

Q: What about the MIC (Candida albicans [20]) of the same molecule?
A: 32 µg/mL (≈ 50.9 µM)

Q: What about the MIC (Candida albicans [21]) of the same molecule?
A: 32 µg/mL (≈ 50.9 µM)

Q: What about the MIC (Pichia kudriavzevii [22]) of the same molecule?
A: 32 µg/mL (≈ 50.9 µM)

Q: What about the MIC (Candida albicans [23]) of the same molecule?
A: 32 µg/mL (≈ 50.9 µM)

Q: What about the MIC (Candida albicans [24]) of the same molecule?
A: 32 µg/mL (≈ 50.9 µM)

Q: And the MIC (Aspergillus niger [25])?
A: 32 µg/mL (≈ 50.9 µM)

Q: What about the MIC (Nakaseomyces glabratus [26]) of the same molecule?
A: 32 µg/mL (≈ 50.9 µM)

Q: And the MIC (Candida albicans [27])?
A: 32 µg/mL (≈ 50.9 µM)
